Results reported in US20180153830A1, “SELECTIVE INHIBITORS OF UNDIFFERENTIATED CELLS” (Yissum Research Development Company of the Hebrew …, priority 2012, published 2018).

Assays:
embryonic stem cells = experiment: Annexin V-FITC apoptosis detection (FACS); format: cell-based, human; settings: for apoptosis of undifferentiated cells: 18 hours, 20 μM PluriSIn #1 or 100 nm A939572
Protocol: For quantification of apoptosis, an Annexin V-FITC Apoptosis Detection Kit (eBioscience) was used. […] Dissociated cells were suspended at a final concentration of 2-5×10^5 cells/ml, and treated according to the manufacturer's instructions. Analysis was performed using LSR II FACS with FCS Express software.
The finding of gene expression associated with apoptosis is consistent with previous reports that pluripotent cells are prone to apoptosis [Qin et al., Journal of Biological Chemistry 282:5842-5852 (2007); Momcilovic et al., PloS One 5:e13410 (2010)]. However, pluripotent cells have also been reported to be susceptible to other types of cell death, such as oncosis [Tan et al., Stem Cells 27:1792-1801 (2009)] and autophagy [Alexander et al., PNAS 108:15828-15833 (2011)]. An Annexin V-FITC detection assay and immunoblotting for caspase-3 (a hallmark executioner of apoptosis) were therefore used in order to confirm that the massive hPSC death induced by PluriSIn #1 is indeed apoptosis.

[1] = test system: spliced isoform sXBP1 in human ES cells; experiment: sXBP1 quantitative PCR, ES cells; format: cell-based; settings: 20 μM PluriSIn #1 (12 hours) or 100 nm A939572
[2] = test system: phosphorylated eIF2α in hPSCs; experiment: Phospho-eIF2α immunoblot, ES cells; format: cell-based, human; settings: 20 μM PluriSIn #1 or 100 nm A939572
Protocol: For immunoblotting, 10% polyacrylamide gel was used for protein separation and detection. The gel was transferred to a nitrocellulose membrane and antibody hybridization and chemiluminescence were performed according to standard procedures. The primary antibodies in this analysis were rabbit anti-phosphorylated-eIF2a (1:250, Cell Signaling Technology), rabbit anti caspase-3 (1:1,000, Cell Signaling Technology), mouse anti β-catenin (1:10,000, BD Biosciences) and mouse anti-α-tubulin (1:50,000, Sigma-Aldrich). Horseradish peroxidase-conjugated anti-rabbit and anti-mouse secondary antibodies were obtained from Jackson Immunoresearch Laboratories.
To further study the significance of UPR, XBP1 mRNA splicing and eIF2α phosphorylation, hallmarks of UPR, were further examined. Human ES cells and ES-derived differentiated cells were treated with PluriSIn #1 for 12 hours, and expression of the spliced isoform sXBP1 was determined by quantitative PCR and by immunoblotting, as described in the Materials and Methods section. Gene expression change conferred by dithiothreitol ([…]) was used as a positive control.

[3] = test system: CSES2-SO2/3-derived differentiated cells; experiment: Fluorescence microscopy imaging of differentiated CSES2-SO2/3 cells; format: cell-based, human; settings: 24 hours of exposure
Protocol: High content imaging of CSES2-SO2/3 fluorescent cells (mCherry+ or EGFP+) was performed in black clear-bottom 384-well assay plates (Falcon BD), using the Opera high-content screen imaging platform (PerkinElmer). Otherwise, light and fluorescence imaging of all cells was performed in 24-well, 6-well or 10 cm CELLSTAR® plates (Greiner Bio-One), using an Olympus CellR imaging station. Light imaging of developing mouse embryos was performed in 35 mm culture dishes (Falcon BD), using an Olympus IX70 microscope.
CSES2-SO2/3 is a genetically-labeled cell line that expresses mCherry under the promoter of the pluripotency hallmark gene OCT-4, and GFP under the promoter of the early endodermal marker SOX17. Therefore, these cells are red while undifferentiated, and become green upon their differentiation into the endodermal lineage [Kopper & Benvenisty, Stem Cell Research 8:335-345 (2011)]. Green early endodermal progenitor cells were generated from the red undifferentiated cells, using an 8-day differentiation protocol as described by Duan et al. [Stem Cells 28:674-686 (2010)].
In order to further verify the selectivity of the PluriSIns, and rule out any potential assay-related interference, undifferentiated and differentiated CSES2-SO2/3 cells were subjected to microscopy imaging after 24 hours of exposure to PluriSIns.

Compound	apoptosis of undifferentiated cells (embryonic stem cells)	increase in expression of spliced isoform sXBP1, ES cells [1]	levels of phosphorylated eIF2α, ES cells [2]	effect on differentiated cells [3]	increase in number of apoptotic cells (embryonic stem cells; 20 μM, 16 hours post-treatment)
CNC(=O)c1cccc(NC(=O)N2CCC(Oc3ccccc3Cl)CC2)c1 [A939572, 4-(2-chlorophenoxy)-N-(3-(methylcarbamoyl)-phenyl)piperidine-1-carboxamide, reference compound]	enhanced apoptosis	approximately 2 fold	increased levels	–	–
O=C(NNc1ccccc1)c1ccncc1 [PluriSIn #1, isonicotinic acid N′-phenylhydrazide]	enhanced apoptosis	approximately 3.5 fold	increased levels	without exhibiting any detectable effect	approximately 7 fold
Cc1ccc(NNC(=O)C(O)(c2ccccc2)c2cccs2)cc1 (stereo not drawn) [PluriSIn #6, 2-hydroxy-2-(thiophen-2-yl)-2-phenylacetic acid 4-methyl-N′-phenylhydrazide]	–	–	–	without exhibiting any detectable effect	–
